Here are results for six compounds from patent US20160251403A1, “PEPTIDE COMBINATIONS AND USES THEREOF IN TREATING DUST MITE ALLERGY” (ALK-ABELLO A/S, priority 2013, published 2016).

No end group written: not given here.

In data set [1] the target is DRB1_1302 (Homo sapiens, UniProt P01903+P01911, A100E/A169T/K41T/L162R/M171V/P40S/Q125H/Q178H/Q39Y/Q99D/R42S/S66N/T262R/V115G/W38E/Y61H). Put plainly: Competitive MHC class II binding assay, DRB1_1302.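 Note: purified HLA class II protein incubated two to four days with a radiolabeled reference binder and test peptide at six concentrations over a 100,000-fold range, complex-bound radioactivity counted.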
The nature of data set [2]: Solubility of peptides in aqueous solutions at different pH (visual inspection, OD, HPLC). In kind it is physicochemical. An outline of the steps:
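Peptides at about 0.25 mM or 1 mM final in water, pH 2 HCl, or pH 5, 7 or 9 buffers with 140 mM NaCl, optionally with about 20% DMSO. Turbidity and particles checked visually before and after centrifugation and by OD. RP-HPLC peak height or area was compared with peptide dissolved in acetonitrile or DMSO.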

The target in data set [3] is DQA10102-DQB10602. The experiment in a line: Competitive MHC class II binding assay, DQA10102-DQB10602. The following applies: read-out: HLA-DQA10102-DQB10602; positive binding at cutoff 1000 nM.
The target of data set [4] is DRB4_0101 (Homo sapiens, UniProt P01903+P13762, G164S). The experiment in a line: Competitive MHC class II binding assay, DRB4_0101.
Data set [5] deals with T1, DPA10103-DPB10301 (Homo sapiens, UniProt P04440+P20036, A65V/A84D/A85E/E86D/F38Y/G113D/G114E/G40L/I94L/L37V/M105V/M116V/P115A/R125K/T199I).
T1 sequence (P20036 29-260): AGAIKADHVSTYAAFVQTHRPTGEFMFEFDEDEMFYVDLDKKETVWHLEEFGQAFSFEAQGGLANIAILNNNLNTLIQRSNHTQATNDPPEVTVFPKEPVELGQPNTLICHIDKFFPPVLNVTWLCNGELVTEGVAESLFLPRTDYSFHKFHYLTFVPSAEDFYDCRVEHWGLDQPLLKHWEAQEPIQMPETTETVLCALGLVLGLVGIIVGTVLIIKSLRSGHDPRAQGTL
T1 sequence (P04440 30-258 L37V/F38Y/G40L/A65V/A84D/A85E/E86D/I94L/M105V/G113D/G114E/P115A/M116V/R125K/T199I/V234M): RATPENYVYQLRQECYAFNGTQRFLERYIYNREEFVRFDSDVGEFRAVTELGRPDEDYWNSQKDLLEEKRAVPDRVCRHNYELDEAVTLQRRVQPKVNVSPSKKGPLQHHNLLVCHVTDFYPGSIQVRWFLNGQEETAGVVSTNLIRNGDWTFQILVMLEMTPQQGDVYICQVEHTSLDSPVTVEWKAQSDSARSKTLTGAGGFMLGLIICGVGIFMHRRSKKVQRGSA
Put plainly: Competitive MHC class II binding assay, DPA10103-DPB10301.

In data set [6] the target is DRB5_0101 (Homo sapiens, UniProt P01903+Q30154). Put plainly: Competitive MHC class II binding assay, DRB5_0101.
Data set [7] deals with DRB1_0101 (Homo sapiens, UniProt P01903+P01911, A100R/D57E/F55L/F60I/F76Y/I96L/L162R/M171V/P40L/Q125E/R42F/V115G/Y59C). The experiment in a line: Competitive MHC class II binding assay, DRB1_0101.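 Note: competition against a radiolabeled probe peptide (0.1–1 nM) for purified HLA class II protein over 2–4 days, bound counts read after antibody capture, six competitor levels across 100,000-fold.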
Data set [8] has as its target DRB1_0901 (Homo sapiens, UniProt P01903+P01911, A100R/A103E/D57H/D86V/F55Y/F60I/F76Y/I96F/K127E/L162R/M171V/P40D/Q125H/Q99R/R33Q/R42F/S133A/S66N/T210M/V115G/W38K/Y107V/Y59G/Y89S). The experiment in a line: Competitive MHC class II binding assay, DRB1_0901.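 Note: displacement of a radiolabeled probe peptide from purified HLA class II protein, bound counts read after two to four days incubation, six concentrations spanning 100,000-fold, unlabeled probe as reference.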
Data set [9] addresses DQA10301-DQB10302 (Homo sapiens, UniProt P01909+P01920, A209T/A45G/C70Q/D89A/DUP78-78/E183D/E77G/F237L/G63E/H199R/I129T/K197E/L178F/L74F/L98V/Q57E/Q76R/S185I/S97I/T217I/T49S/V73L/Y58L). Put plainly: Competitive MHC class II binding assay, DQA10301-DQB10302.
The target of data set [10] is DRB1_0401 (Homo sapiens, UniProt P01903+P01911, A100K/A169T/F76Y/I96L/K127E/L162R/M171V/N62H/P40V/Q125Y/R42H/S133A/S149N/S66Y/V115G/V209L/W38E). The experiment in a line: Competitive MHC class II binding assay, DRB1_0401.
The target of data set [11] is DRB3_0202 (Homo sapiens, UniProt P01903+P79483, A212P/D57E/F66Y/L67A/R103Q/R218S/R40L/S89Y/T80R/V86D/Y55F/Y59H). The experiment in a line: Competitive MHC class II binding assay, DRB3_0202.

In the case of `CC[C@H](C)[C@H](NC(=O)CNC(=O)[C@@H](NC(=O)[C@@H](NC(=O)[C@@H](NC(=O)[C@H](C)NC(=O)[C@@H](NC(=O)[C@H](C)NC(=O)[C@H](CO)NC(=O)[C@H](Cc1c[nH]cn1)NC(=O)[C@@H](NC(=O)[C@H](CCC(N)=O)NC(=O)[C@H](C)NC(=O)[C@H](CC(C)C)NC(=O)[C@H](C)NC(=O)[C@H](CCC(=O)O)NC(=O)[C@@H](N)CCCNC(=N)N)[C@@H](C)O)[C@@H](C)CC)C(C)C)[C@@H](C)CC)[C@@H](C)CC)C(=O)N[C@@H](CCCCN)C(=O)N[C@@H](CC(=O)O)C(=O)N[C@@H](CC(C)C)C(=O)N[C@@H](CC(=O)O)C(=O)N[C@@H](C)C(=O)O` [pep-130], the IC50 in data set [1], in data set [3], in data set [4], in [5], in [6] and in [7] was < 1000 nM throughout. In addition, the IC50 in [8] and in data set [9] was < 1000 nM each time. In addition, in data set [2], the “Solubility at pH 7 (visual inspection)” value is recorded as “Slight turbid”.

Take DNGYGYFAANIDLMMIEE [pep-010]: the IC50 in data set [1], in data set [10], in [3], in data set [4], in data set [11] and in [7] was < 1000 nM each time. The IC50 in [8] and in data set [9] was < 1000 nM throughout. In addition, the “binding to HLA Class II allele DRB1_1302” value in data set [1] (as shown in Table 16a) was “binds to at least the same alleles as peptide 041”. In addition, the “binding to HLA Class II allele DRB3_0202” value in [11] (as shown in Table 16a) is “binds to at least the same alleles as peptide 041”.

Consider GSGSSWAFSGVAATESAYLA [pep-044], for which the IC50 in data set [1], in [10], in data set [3], in data set [5], in data set [11] and in data set [7] was < 1000 nM throughout. Moreover, the IC50 in [8] and in data set [9] was < 1000 nM in each case.

Consider HAVNIVGYSNAQGVDYWIVR [pep-058], for which the IC50 in [1], in [10], in data set [3], in data set [4], in data set [5] and in data set [8] was < 1000 nM in each case. In addition, the “Solubility at pH 7 (visual inspection)” value in data set [2] is “Slight turbid”.

Take LVGDNGVLASAIATHAKIRD [pep-110]: the IC50 in data set [1], in data set [10], in data set [3], in data set [4], in [6] and in [7] was < 1000 nM in each case. Moreover, the IC50 in data set [8] is < 1000 nM.

For the compound LVKGQQYDIKYTWNVPKIAPK [pep-131], the IC50 in data set [1], in data set [5], in [6], in [11], in [7] and in data set [8] was < 1000 nM in each case. Moreover, the “Solubility at pH 7” value in data set [2] (Table 11a, evaluated by visual inspection) is “Clear”.
